Test results taken from paper PMC6451126 (2019).

Columns and labels:
[1] = system: KRAS (DNA, G4) AGGGCGGTGTGGGAAGAGGGAAGAGGGGGAGG; assay: RLS intensity ratio; Job plot; settings: 50 mM KCl; 20 mM Tris-HCl pH 7.4, 1 mM Na2EDTA, 5 µM porphyrin
[2] = system: Oxy28 (DNA, G4) GGGGTTTTGGGGTTTTGGGGTTTTGGGG; assay: RLS intensity ratio; settings: 50 mM KCl; 20 mM Tris-HCl pH 7.0, 1 mM Na2EDTA, 5 µM porphyrin, 10 µM DNA
[3] = system: Hum24 (DNA, G4) TTAGGGTTAGGGTTAGGGTTAGGG; assay: RLS intensity ratio; settings: 50 mM KCl; 20 mM Tris-HCl pH 7.0, 1 mM Na2EDTA, 5 µM porphyrin, 10 µM DNA
[4] = system: C-MYC (DNA, G4) TGAGGGTGGGGAGGGTGGGGAA; assay: RLS intensity ratio; settings: 50 mM KCl; 20 mM Tris-HCl pH 7.0, 1 mM Na2EDTA, 5 µM porphyrin, 10 µM DNA
[5] = system: CatG4 (DNA, G4) TGGGTAGGGCGGGTTGGG; assay: RLS intensity ratio; settings: 50 mM KCl; 20 mM Tris-HCl pH 7.0, 1 mM Na2EDTA, 5 µM porphyrin, 10 µM DNA
[6] = system: AS1411 (DNA, G4) GGTGGTGGTGGTTGTGGTGGTGGTGG; assay: RLS intensity ratio; settings: 50 mM KCl; 20 mM Tris-HCl pH 7.0, 1 mM Na2EDTA, 5 µM porphyrin, 10 µM DNA
[7] = system: KRAS (DNA, G4) AGGGCGGTGTGGGAAGAGGGAAGAGGGGGAGG; assay: RLS ratio I702/I652, absorption, fluorescence; Job plot; settings: 50 mM KCl; 20 mM Tris-HCl pH 7.0, 1 mM Na2EDTA, 5 µM porphyrin

Measured: binding

C[N+]1(CCO)CC[N+](C)(CCOc2ccc(-c3c4nc(c(-c5ccc(OCC[N+]6(C)CC[N+](C)(CCO)CC6)cc5)c5ccc([nH]5)c(-c5ccc(OCC[N+]6(C)CC[N+](C)(CCO)CC6)cc5)c5nc(c(-c6ccc(OCC[N+]7(C)CC[N+](C)(CCO)CC7)cc6)c6ccc3[nH]6)C=C5)C=C4)cc2)CC1 (stereo not shown)
yes: [1]

C[N+]1(CCOc2ccc(-c3c4nc(c(-c5ccc(OCC[N+]6(C)CCCCC6)cc5)c5ccc([nH]5)c(-c5ccc(OCC[N+]6(C)CCCCC6)cc5)c5nc(c(-c6ccc(OCC[N+]7(C)CCCCC7)cc6)c6ccc3[nH]6)C=C5)C=C4)cc2)CCCCC1
not listed: [1]
yes: all other assays above
